Calls of active or inactive are those of the source.
Target: T1, Glycogen phosphorylase, liver form (Homo sapiens, UniProt P06737)
T1 sequence (P06737 whole entry): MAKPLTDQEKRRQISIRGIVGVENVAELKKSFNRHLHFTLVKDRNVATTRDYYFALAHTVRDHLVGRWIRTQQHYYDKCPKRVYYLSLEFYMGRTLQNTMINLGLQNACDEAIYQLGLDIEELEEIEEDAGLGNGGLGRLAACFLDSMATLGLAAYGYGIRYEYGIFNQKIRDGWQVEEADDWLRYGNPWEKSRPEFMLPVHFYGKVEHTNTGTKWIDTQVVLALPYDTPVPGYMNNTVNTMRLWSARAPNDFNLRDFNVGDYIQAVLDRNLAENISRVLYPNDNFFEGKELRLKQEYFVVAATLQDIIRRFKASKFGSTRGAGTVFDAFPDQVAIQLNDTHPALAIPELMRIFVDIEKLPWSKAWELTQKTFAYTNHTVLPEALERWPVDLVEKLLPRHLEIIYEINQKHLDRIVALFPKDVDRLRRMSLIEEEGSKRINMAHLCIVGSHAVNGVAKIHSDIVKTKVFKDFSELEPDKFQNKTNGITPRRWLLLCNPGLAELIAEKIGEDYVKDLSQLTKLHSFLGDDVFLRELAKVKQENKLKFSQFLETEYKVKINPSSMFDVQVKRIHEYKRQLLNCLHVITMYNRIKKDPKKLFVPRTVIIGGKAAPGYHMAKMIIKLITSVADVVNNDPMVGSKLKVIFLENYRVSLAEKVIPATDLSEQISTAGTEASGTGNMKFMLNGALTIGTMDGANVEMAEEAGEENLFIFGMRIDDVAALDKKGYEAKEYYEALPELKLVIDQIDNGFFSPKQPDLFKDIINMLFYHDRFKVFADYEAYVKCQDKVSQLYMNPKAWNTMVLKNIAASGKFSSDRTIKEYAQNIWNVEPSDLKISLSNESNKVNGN
Type: subcellular, K-562, COLO 205, SK-N-BE(2) and MV-4-11, Cell lysate
Settings: read-out: Kd apparent
Further: in the data inactive means no Kd found up to 30 µM.

| SMILES | Kd |
| --- | --- |
| CCN1CCN(Cc2ccc(-c3cc4c(N[C@H](C)c5ccccc5)ncnc4[nH]3)cc2)CC1 [AEE-788] | > 30 µM (inactive) |
| Cn1ncc(Cl)c1-c1cc(C(=O)N[C@H](CN)Cc2cccc(F)c2)sc1Cl [AFURESERTIB] | > 30 µM (inactive) |
| COc1cc(N2CCC(N3CCN(C)CC3)CC2)ccc1Nc1ncnc(Nc2ccccc2S(=O)(=O)C(C)C)n1 [ASP-3026] | > 30 µM (inactive) |

Target: T2, Peroxisomal acyl-coenzyme A oxidase 3 (Homo sapiens, UniProt O15254)
T2 sequence (O15254 whole entry): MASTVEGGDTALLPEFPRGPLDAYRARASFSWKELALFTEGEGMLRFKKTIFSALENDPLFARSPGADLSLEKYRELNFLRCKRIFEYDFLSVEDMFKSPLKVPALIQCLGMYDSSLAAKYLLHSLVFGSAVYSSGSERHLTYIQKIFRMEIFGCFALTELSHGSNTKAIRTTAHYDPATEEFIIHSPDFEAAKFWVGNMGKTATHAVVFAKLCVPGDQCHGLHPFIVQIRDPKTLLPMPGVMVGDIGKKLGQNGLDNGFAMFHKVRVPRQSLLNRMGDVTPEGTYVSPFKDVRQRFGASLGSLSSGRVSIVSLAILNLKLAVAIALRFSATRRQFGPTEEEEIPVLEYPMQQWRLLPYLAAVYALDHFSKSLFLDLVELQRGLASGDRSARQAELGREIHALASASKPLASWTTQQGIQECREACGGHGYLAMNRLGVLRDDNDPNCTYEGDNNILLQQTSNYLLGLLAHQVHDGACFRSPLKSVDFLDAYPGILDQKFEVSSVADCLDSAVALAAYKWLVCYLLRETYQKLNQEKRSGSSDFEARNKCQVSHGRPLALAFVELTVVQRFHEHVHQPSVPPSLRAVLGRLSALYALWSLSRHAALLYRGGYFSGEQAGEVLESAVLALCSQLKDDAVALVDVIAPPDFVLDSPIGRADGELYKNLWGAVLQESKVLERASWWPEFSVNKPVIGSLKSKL
Settings: not given

| SMILES | Kd |
| --- | --- |
| CCN1CCN(Cc2ccc(-c3cc4c(N[C@H](C)c5ccccc5)ncnc4[nH]3)cc2)CC1 [AEE-788] | > 30 µM (inactive) |
| Cn1ncc(Cl)c1-c1cc(C(=O)N[C@H](CN)Cc2cccc(F)c2)sc1Cl [AFURESERTIB] | > 30 µM (inactive) |
| COc1cc(N2CCC(N3CCN(C)CC3)CC2)ccc1Nc1ncnc(Nc2ccccc2S(=O)(=O)C(C)C)n1 [ASP-3026] | > 30 µM (inactive) |

Target: Activin receptor type-2B (Homo sapiens, UniProt Q13705)
Settings: not given

Chain of Activin receptor type-2B (Q13705 whole entry): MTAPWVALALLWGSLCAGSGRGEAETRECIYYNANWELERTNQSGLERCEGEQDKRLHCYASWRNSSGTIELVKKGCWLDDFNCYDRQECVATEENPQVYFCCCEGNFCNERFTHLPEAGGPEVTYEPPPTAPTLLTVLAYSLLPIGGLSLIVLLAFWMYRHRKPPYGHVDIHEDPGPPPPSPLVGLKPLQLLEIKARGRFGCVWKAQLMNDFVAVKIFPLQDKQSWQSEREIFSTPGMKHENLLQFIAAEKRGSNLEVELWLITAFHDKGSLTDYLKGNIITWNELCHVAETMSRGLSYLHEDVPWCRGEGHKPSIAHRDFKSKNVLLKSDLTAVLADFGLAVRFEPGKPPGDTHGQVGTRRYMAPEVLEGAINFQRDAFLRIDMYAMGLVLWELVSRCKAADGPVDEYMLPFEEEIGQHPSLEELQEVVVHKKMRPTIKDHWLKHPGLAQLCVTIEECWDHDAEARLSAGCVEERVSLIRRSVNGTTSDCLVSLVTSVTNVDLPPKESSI

| SMILES | Kd |
| --- | --- |
| CCN1CCN(Cc2ccc(-c3cc4c(N[C@H](C)c5ccccc5)ncnc4[nH]3)cc2)CC1 [AEE-788] | > 30 µM (inactive) |
| Cn1ncc(Cl)c1-c1cc(C(=O)N[C@H](CN)Cc2cccc(F)c2)sc1Cl [AFURESERTIB] | > 30 µM (inactive) |
| COc1cc(N2CCC(N3CCN(C)CC3)CC2)ccc1Nc1ncnc(Nc2ccccc2S(=O)(=O)C(C)C)n1 [ASP-3026] | > 30 µM (inactive) |

Target: Serine/threonine-protein kinase MRCK beta (Homo sapiens, UniProt Q9Y5S2)
Settings: not given

Chain of Serine/threonine-protein kinase MRCK beta (Q9Y5S2 whole entry): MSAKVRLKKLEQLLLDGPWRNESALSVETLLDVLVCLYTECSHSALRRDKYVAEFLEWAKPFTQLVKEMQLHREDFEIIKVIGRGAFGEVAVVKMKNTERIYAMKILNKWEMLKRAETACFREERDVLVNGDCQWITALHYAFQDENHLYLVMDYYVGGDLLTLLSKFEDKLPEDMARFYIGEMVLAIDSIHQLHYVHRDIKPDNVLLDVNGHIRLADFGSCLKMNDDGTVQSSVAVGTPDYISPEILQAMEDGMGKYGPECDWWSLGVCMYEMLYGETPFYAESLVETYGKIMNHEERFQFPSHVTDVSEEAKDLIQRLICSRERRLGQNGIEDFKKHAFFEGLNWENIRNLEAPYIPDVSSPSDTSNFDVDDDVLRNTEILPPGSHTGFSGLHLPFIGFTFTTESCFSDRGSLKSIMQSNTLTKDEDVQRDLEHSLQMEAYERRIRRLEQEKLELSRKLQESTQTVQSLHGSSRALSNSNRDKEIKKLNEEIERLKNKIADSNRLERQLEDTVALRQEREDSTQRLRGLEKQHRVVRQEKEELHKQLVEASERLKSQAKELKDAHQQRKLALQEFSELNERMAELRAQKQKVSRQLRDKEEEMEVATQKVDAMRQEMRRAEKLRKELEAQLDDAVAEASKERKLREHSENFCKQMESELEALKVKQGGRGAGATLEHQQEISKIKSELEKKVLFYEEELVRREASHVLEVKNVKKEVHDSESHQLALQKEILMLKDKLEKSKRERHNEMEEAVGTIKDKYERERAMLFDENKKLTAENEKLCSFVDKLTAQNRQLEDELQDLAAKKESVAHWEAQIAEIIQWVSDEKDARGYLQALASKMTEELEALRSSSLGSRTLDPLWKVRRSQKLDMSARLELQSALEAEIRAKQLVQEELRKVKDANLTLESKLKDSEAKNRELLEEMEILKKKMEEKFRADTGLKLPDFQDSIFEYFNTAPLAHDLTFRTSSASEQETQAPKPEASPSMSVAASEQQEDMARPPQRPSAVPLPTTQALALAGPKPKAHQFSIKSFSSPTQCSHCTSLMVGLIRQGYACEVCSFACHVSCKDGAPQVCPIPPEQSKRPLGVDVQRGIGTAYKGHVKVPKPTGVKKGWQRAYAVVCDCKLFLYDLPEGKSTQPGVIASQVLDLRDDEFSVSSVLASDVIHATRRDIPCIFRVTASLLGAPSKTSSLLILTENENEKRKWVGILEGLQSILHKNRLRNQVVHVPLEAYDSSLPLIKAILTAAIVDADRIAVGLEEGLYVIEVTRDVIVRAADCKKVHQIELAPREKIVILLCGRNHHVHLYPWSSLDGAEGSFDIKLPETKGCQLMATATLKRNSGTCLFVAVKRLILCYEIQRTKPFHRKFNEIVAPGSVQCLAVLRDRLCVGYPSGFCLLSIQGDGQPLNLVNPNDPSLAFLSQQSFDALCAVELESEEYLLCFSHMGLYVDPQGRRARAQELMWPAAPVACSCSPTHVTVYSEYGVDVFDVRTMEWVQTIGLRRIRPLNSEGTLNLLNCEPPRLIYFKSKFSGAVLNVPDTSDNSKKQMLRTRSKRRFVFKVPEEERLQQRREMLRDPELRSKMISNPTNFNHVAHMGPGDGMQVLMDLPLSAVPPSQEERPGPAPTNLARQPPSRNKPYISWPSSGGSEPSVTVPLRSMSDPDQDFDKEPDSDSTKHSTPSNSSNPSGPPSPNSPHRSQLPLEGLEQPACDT

| SMILES | Kd |
| --- | --- |
| CCN1CCN(Cc2ccc(-c3cc4c(N[C@H](C)c5ccccc5)ncnc4[nH]3)cc2)CC1 [AEE-788] | > 30 µM (inactive) |
| Cn1ncc(Cl)c1-c1cc(C(=O)N[C@H](CN)Cc2cccc(F)c2)sc1Cl [AFURESERTIB] | > 30 µM (inactive) |
| COc1cc(N2CCC(N3CCN(C)CC3)CC2)ccc1Nc1ncnc(Nc2ccccc2S(=O)(=O)C(C)C)n1 [ASP-3026] | > 30 µM (inactive) |

Target: Cyclin-dependent kinase 4 (Homo sapiens, UniProt P11802)
Settings: not given

Chain of Cyclin-dependent kinase 4 (P11802 whole entry): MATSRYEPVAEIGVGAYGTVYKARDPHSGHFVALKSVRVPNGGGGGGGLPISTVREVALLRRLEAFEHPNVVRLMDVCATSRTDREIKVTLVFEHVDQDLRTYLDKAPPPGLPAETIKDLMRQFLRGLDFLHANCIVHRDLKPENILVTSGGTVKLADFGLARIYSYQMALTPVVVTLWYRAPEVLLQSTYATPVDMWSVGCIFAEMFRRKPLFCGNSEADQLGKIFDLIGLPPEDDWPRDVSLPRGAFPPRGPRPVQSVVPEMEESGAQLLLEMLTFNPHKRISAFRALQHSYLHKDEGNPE

| SMILES | Kd |
| --- | --- |
| CCN1CCN(Cc2ccc(-c3cc4c(N[C@H](C)c5ccccc5)ncnc4[nH]3)cc2)CC1 [AEE-788] | > 30 µM (inactive) |
| Cn1ncc(Cl)c1-c1cc(C(=O)N[C@H](CN)Cc2cccc(F)c2)sc1Cl [AFURESERTIB] | > 30 µM (inactive) |
| COc1cc(N2CCC(N3CCN(C)CC3)CC2)ccc1Nc1ncnc(Nc2ccccc2S(=O)(=O)C(C)C)n1 [ASP-3026] | > 30 µM (inactive) |

Target: T3, Delta(24)-sterol reductase (Homo sapiens, UniProt Q15392)
T3 sequence (Q15392 whole entry): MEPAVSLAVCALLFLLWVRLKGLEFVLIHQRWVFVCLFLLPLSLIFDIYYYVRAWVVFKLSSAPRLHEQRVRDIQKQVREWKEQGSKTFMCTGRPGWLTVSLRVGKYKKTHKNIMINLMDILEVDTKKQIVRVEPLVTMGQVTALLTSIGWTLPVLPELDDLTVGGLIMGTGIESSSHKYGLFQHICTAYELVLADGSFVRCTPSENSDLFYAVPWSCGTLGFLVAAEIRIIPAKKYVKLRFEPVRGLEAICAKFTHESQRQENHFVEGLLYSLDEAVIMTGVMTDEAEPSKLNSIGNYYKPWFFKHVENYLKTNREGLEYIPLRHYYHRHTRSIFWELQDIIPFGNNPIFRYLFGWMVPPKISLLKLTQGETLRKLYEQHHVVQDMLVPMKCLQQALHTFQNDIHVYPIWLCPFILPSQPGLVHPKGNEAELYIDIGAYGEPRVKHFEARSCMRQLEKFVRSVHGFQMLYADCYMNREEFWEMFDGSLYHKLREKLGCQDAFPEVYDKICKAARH
Settings: not given

| SMILES | Kd |
| --- | --- |
| CCN1CCN(Cc2ccc(-c3cc4c(N[C@H](C)c5ccccc5)ncnc4[nH]3)cc2)CC1 [AEE-788] | > 30 µM (inactive) |
| Cn1ncc(Cl)c1-c1cc(C(=O)N[C@H](CN)Cc2cccc(F)c2)sc1Cl [AFURESERTIB] | > 30 µM (inactive) |
| COc1cc(N2CCC(N3CCN(C)CC3)CC2)ccc1Nc1ncnc(Nc2ccccc2S(=O)(=O)C(C)C)n1 [ASP-3026] | > 30 µM (inactive) |

Target: Tyrosine-protein kinase Fyn (Homo sapiens, UniProt P06241)
Settings: not given

Chain of Tyrosine-protein kinase Fyn (P06241 whole entry): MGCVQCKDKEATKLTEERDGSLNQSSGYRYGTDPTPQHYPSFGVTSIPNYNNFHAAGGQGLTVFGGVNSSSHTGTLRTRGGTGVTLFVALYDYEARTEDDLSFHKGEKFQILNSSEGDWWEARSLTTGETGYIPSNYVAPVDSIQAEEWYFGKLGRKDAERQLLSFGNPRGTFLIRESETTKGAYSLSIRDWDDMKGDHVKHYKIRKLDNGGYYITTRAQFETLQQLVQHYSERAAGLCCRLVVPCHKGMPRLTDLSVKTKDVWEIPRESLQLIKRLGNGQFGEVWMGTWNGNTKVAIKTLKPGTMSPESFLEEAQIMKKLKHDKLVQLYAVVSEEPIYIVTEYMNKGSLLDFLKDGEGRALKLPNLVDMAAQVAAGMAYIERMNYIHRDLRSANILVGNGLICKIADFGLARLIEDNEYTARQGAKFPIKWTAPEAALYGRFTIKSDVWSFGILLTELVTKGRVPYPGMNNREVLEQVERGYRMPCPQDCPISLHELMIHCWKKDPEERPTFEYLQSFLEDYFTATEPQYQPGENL

| SMILES | Kd |
| --- | --- |
| CCN1CCN(Cc2ccc(-c3cc4c(N[C@H](C)c5ccccc5)ncnc4[nH]3)cc2)CC1 [AEE-788] | > 30 µM (inactive) |
| Cn1ncc(Cl)c1-c1cc(C(=O)N[C@H](CN)Cc2cccc(F)c2)sc1Cl [AFURESERTIB] | > 30 µM (inactive) |
| COc1cc(N2CCC(N3CCN(C)CC3)CC2)ccc1Nc1ncnc(Nc2ccccc2S(=O)(=O)C(C)C)n1 [ASP-3026] | 1.53 µM (active) |

Target: Mitogen-activated protein kinase 8 (Homo sapiens, UniProt P45983)
Settings: not given

Chain of Mitogen-activated protein kinase 8 (P45983 whole entry): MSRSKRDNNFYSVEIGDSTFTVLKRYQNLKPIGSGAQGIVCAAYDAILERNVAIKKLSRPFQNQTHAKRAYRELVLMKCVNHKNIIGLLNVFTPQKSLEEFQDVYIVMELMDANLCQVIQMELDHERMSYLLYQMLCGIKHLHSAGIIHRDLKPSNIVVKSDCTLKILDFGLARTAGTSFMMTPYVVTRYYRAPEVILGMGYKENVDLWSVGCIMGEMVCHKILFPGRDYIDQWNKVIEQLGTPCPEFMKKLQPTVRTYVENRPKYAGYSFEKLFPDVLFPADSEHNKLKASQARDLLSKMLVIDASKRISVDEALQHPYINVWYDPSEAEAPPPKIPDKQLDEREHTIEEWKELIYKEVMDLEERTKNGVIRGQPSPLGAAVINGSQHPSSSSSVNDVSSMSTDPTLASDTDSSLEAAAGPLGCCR

| SMILES | Kd |
| --- | --- |
| CCN1CCN(Cc2ccc(-c3cc4c(N[C@H](C)c5ccccc5)ncnc4[nH]3)cc2)CC1 [AEE-788] | > 30 µM (inactive) |
| Cn1ncc(Cl)c1-c1cc(C(=O)N[C@H](CN)Cc2cccc(F)c2)sc1Cl [AFURESERTIB] | > 30 µM (inactive) |
| COc1cc(N2CCC(N3CCN(C)CC3)CC2)ccc1Nc1ncnc(Nc2ccccc2S(=O)(=O)C(C)C)n1 [ASP-3026] | > 30 µM (inactive) |

Target: cAMP-dependent protein kinase catalytic subunit beta (Homo sapiens, UniProt P22694)
Settings: not given

| SMILES | Kd |
| --- | --- |
| CCN1CCN(Cc2ccc(-c3cc4c(N[C@H](C)c5ccccc5)ncnc4[nH]3)cc2)CC1 [AEE-788] | > 30 µM (inactive) |
| Cn1ncc(Cl)c1-c1cc(C(=O)N[C@H](CN)Cc2cccc(F)c2)sc1Cl [AFURESERTIB] | 0.211 µM (active) |
| COc1cc(N2CCC(N3CCN(C)CC3)CC2)ccc1Nc1ncnc(Nc2ccccc2S(=O)(=O)C(C)C)n1 [ASP-3026] | > 30 µM (inactive) |

Target: T4, Succinate--CoA ligase [ADP-forming] subunit beta, mitochondrial (Homo sapiens, UniProt Q9P2R7)
T4 sequence (Q9P2R7 whole entry): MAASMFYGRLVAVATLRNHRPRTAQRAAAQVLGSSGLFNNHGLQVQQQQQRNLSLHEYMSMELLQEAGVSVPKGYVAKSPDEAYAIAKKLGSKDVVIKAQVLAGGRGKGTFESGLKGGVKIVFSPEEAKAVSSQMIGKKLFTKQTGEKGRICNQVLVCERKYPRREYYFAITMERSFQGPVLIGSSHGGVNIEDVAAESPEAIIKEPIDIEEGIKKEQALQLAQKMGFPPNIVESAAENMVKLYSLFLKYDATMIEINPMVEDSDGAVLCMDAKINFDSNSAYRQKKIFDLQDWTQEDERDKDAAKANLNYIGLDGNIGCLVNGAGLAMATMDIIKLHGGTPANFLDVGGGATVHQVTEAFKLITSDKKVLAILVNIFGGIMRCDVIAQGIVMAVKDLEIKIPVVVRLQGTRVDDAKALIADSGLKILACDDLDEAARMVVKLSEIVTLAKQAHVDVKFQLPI
Settings: not given

| SMILES | Kd |
| --- | --- |
| CCN1CCN(Cc2ccc(-c3cc4c(N[C@H](C)c5ccccc5)ncnc4[nH]3)cc2)CC1 [AEE-788] | > 30 µM (inactive) |
| Cn1ncc(Cl)c1-c1cc(C(=O)N[C@H](CN)Cc2cccc(F)c2)sc1Cl [AFURESERTIB] | > 30 µM (inactive) |
| COc1cc(N2CCC(N3CCN(C)CC3)CC2)ccc1Nc1ncnc(Nc2ccccc2S(=O)(=O)C(C)C)n1 [ASP-3026] | > 30 µM (inactive) |

Target: Tyrosine-protein kinase SYK (Homo sapiens, UniProt P43405)
Settings: not given

| SMILES | Kd |
| --- | --- |
| CCN1CCN(Cc2ccc(-c3cc4c(N[C@H](C)c5ccccc5)ncnc4[nH]3)cc2)CC1 [AEE-788] | > 30 µM (inactive) |
| Cn1ncc(Cl)c1-c1cc(C(=O)N[C@H](CN)Cc2cccc(F)c2)sc1Cl [AFURESERTIB] | > 30 µM (inactive) |
| COc1cc(N2CCC(N3CCN(C)CC3)CC2)ccc1Nc1ncnc(Nc2ccccc2S(=O)(=O)C(C)C)n1 [ASP-3026] | > 30 µM (inactive) |
